“Also recorded” adds a separate entry of the source.
Key:
[1] = tasting of aqueous potassium chloride solutions with or without mogroside; format: in vivo
Text: When tasted by volunteers, the solution without mogroside was bitter, unpleasant, and generally considered undrinkable.
(§1) Additional examples of the use of Mogroside V to alter the flavors of various consumables, and the experimental results obtained, are summarized in Table I: […]

[2] = tasting of glycerine-water mixtures with mogroside; format: in vivo
Text: Glycerine causes an astringent or biting taste in the back of the mouth when added to foods at levels over a few percent by weight. […] Glycerine may then be used as a humectant in intermediate-moisture human and pet foods. Adding a preferred concentration of about 200 ppm mogroside reduces or even eliminates the glycerine “bite.” Foods such as beans, pasta, rice, and bulgur can be pre-cooked in aqueous solutions of glycerine (˜2 to ˜30% by weight), containing ˜25 to ˜500 ppm mogroside. The products are then optionally dried to a water activity (aw) less than ˜0.7. The resulting materials can be rehydrated quickly with no bitter flavor.
as §1

[3] = tasting of acai products with mogroside; format: in vivo
Text: Acai berries have a bitter off-flavor, which has limited the use of acai as a natural anti-oxidant. Prior methods for minimizing the bitterness of acai have included diluting the juice, adding sugar, or mixing acai with other, sweeter berries. […] The flat, tannic notes of acai were masked, and the puree flavor changed to a semi-sweet berry flavor with large, juicy top notes. The preferred concentration range was ˜200 to ˜500 ppm mogroside. […] Possible uses include any products that contain acai berry ingredients, including for example raw berries, purees, powders, flavorings, juices, ice cream (with or without glycerin), fruit fillings, smoothies, yogurts, teas, coffee, beer, salad dressing, marinades, candies, wines, liquors, other alcoholic beverages, and the like.
as §1

[4] = tasting of Hominex amino acid beverage with mogroside; format: in vivo; settings: for off-flavors, chalkiness, pastiness and bitterness compared to the unmodified beverage / mogroside-associated off flavor: Hominex suspension
Procedure: For example, we added mogroside to a commercial amino acid beverage (Hominex™) at a rate of 200-1000 ppm, preferably 300-800 ppm. The Hominex™ suspension, which contains free amino acids, vitamins, minerals, and other nutrients, was prepared in accordance with the manufacturer's directions. Mogroside was then added to the dissolved medical food drink. The suspension was allowed to equilibrate for about one minute before tasting. Compared to the unmodified beverage, there was a marked reduction in the off-flavors, the chalkiness, the pastiness, and the bitterness. […] Unless additional flavors are also added, mogroside's own off-flavor can limit its use at higher concentrations. Conversely, at least for the samples we have tested to date, there may be no compelling reason to use mogroside at such higher levels anyway. Using mogroside in free amino acid-based foods can reduce or eliminate the bitter and unpleasant flavors, making them much more palatable, and enhancing patient compliance. Similar results are expected for improving the palatability of other medical foods.
as §1

[5] = blind tasting of poached beef liver puree; format: in vivo
Procedure: In another experiment, mogroside was added to a beef liver puree, and the puree was poached to an internal temperature of 74° C. A control puree with no mogroside was identically cooked. Six individuals tasted the samples blind and could easily differentiate them.

[6] = tasting of coconut water with mogroside; format: in vivo; settings: plain + 200 ppm mogroside (plain: bitter)
Text: as §1

[7] = tasting of lima beans with mogroside in oil; format: in vivo; settings: plain + 100 ppm mogroside in oil (plain: beany)
Text: as §1

[8] = tasting of Powerade sports drink with KCl and mogroside; format: in vivo
Text: as §1

[9] = tasting of vodka with mogroside; format: in vivo; settings: plain + 200 ppm mogroside (plain: sharp bite)
Text: as §1

[10] = tasting of Robusta coffee with chicory with mogroside; format: in vivo; settings: 2 g/250 g water, plain + 200 ppm mogroside
Text: as §1

[11] = difference and preference testing of a cocoa powder drink with 400 ppm mogroside; format: in vivo
Text: as §1

[12] = tasting of acai ice cream with glycerine and mogroside; format: in vivo
Text: as §1

[13] = solubility of mogroside in water versus oil; format: physicochemical
Text: Addition of mogroside will also help improve the flavor of other organ meats and products containing organ meats. Other methods of cooking may also be used. The concentration or amount of mogroside may vary, depending on the method of cooking used. […] By contrast, cooking foods in water may require that higher concentrations of mogroside be used than when cooking in oil, because the mogroside is soluble in the cooking liquid. Higher concentrations of mogroside may be needed to promote osmosis or diffusion into the food. Temperature and cooking time will also have an effect on uptake of mogroside: In general, more mogroside will be taken up by food when the cooking temperature is higher, and also when the cooking time is longer.

[14] = cocoa powder drink + 400 ppm mogroside vs control, number of tasters

Substance: mogroside
- perceived taste ([1]; 2% aqueous potassium chloride with 250 ppm mogroside, tasted by volunteers, without mogroside bitter, undrinkable): slightly salty, otherwise bland, and far more drinkable
- flavor ([1]; KCl 2% + 250 ppm mogroside (2% alone: bitter)): salty
- flavor ([1]; KCl 2.5% + 250 ppm mogroside): salty
- flavor ([1]; KCl 3.0% + 250 ppm mogroside): slight bitterness
- flavor ([2]; 50% glycerine solution + mogroside (without: biting)): sweet
- effect on astringent or biting taste of glycerine ([2]; mogroside added to glycerine-water mixtures): greatly reduces or even eliminates the astringent or biting taste
- flavor ([3]; Acai puree 12% Brix, plain + 500 ppm mogroside (plain: tannic)): berry-semi-sweet/fruity
- flavor ([3]; Acai, 100 ppm mogroside (control: bitter, tannic)): bland, slight tannic
- flavor ([3]; Acai, 200 ppm mogroside): fruity, berry semi-sweet
- flavor ([3]; Acai, 300 ppm mogroside): tannic, little flavor at all
- flavor ([3]; Acai, 400 ppm mogroside): jammy, slight tannic
- flavor ([3]; Acai, 500 ppm mogroside): jammy, no tannin
- flavor ([3]; Acai, 600 ppm mogroside): jammy, sweet after taste;; also recorded: high intensity flavor
- flavor ([3]; Acai, 700 ppm mogroside): sweet
- flavor ([3]; Acai, 800 ppm mogroside): too sweet
- flavor ([3]; acai products, 800 ppm mogroside): strong, high-intensity sweet flavor
- effect on bitterness and off-flavor of acai ([3]; mogroside added to acai berry puree): masked the bitterness and off-flavor notes
- flavor ([4]; 9.3 g Hominex/100 ml water + 200 ppm mogroside): much less so, but still; also recorded: bitter & slightly floury
- flavor ([4]; 9.3 g Hominex/100 ml water + 300 ppm mogroside): drinkable
- flavor ([4]; 9.3 g Hominex/100 ml water + 400 ppm mogroside): tasteless
- flavor ([4]; 9.3 g Hominex/100 ml water + 500 ppm mogroside): tasteless
- flavor ([4]; 9.3 g Hominex/100 ml water + 600 ppm mogroside): slight strange taste
- flavor ([4]; 9.3 g Hominex/100 ml water + 700 ppm mogroside): hint of off-note
- flavor ([4]; 9.3 g Hominex/100 ml water + 800 ppm mogroside): off-flavored
- flavor ([4]; 10 g Hominex/230 g water + 200 ppm mogroside (without: bad aftertaste)): drinkable
- off-flavors, chalkiness, pastiness and bitterness compared to the unmodified beverage ([4]; 200 ppm mogroside): reduced
- off-flavors, chalkiness, pastiness and bitterness compared to the unmodified beverage ([4]; 300 ppm mogroside): essentially eliminated
- mogroside-associated off flavor ([4]; 800 ppm mogroside): pronounced
- mogroside-associated off flavor ([4]; around 600 ppm mogroside): began to develop
- taste description by six blind tasters ([5]; 150-250 ppm, puree poached to 74° C., control livery, organy, bloody): slightly sweet, “bologna-like,” and “bland.”
- level preferred by the majority of testers ([5]; in vivo): 200 ppm
- preference of testers ([5]; samples with mogroside vs control puree, six individuals): All testers preferred the samples with mogroside
- flavor [6]: sweet
- flavor [7]: semi-sweet; no; also recorded: beaniness
- flavor ([8]; plain + 2% KCl + mogroside (without mogroside: bitter)): salty
- flavor ([8]; plain + 3% KCl + mogroside (without mogroside: bitter)): slightly bitter, salty
- flavor [9]: tasteless
- flavor [10]: sweet coffee flavor
- Difference testing: No [11, 14]: 0
- Difference testing: Yes [11, 14]: 6
- Preference testing: Control ([11]; number preferring control without mogroside): 1
- Preference testing: Test ([11]; number preferring test drink with 400 ppm mogroside): 6
- flavor and texture ([12]; + 5% Acai + 5% glycerin + 200 ppm mogroside): not too much flavor,; also recorded: slightly soft
- flavor and texture ([12]; + 5% Acai + 5% glycerin + 300 ppm mogroside): soft, sweet
- flavor and texture ([12]; + 5% Acai + 5% glycerin + 400 ppm mogroside): sweet, not much flavor,; also recorded: some berry, soft
- flavor and texture ([12]; + 10% Acai + 5% glycerin + 200 ppm mogroside): berry notes, slightly soft
- flavor and texture ([12]; + 10% Acai + 5% glycerin + 300 ppm mogroside): creamy
- flavor and texture ([12]; + 10% Acai + 5% glycerin + 400 ppm mogroside): sweet, jammy, creamy,; also recorded: a bit too sweet
- flavor and texture ([12]; + 10% Acai + 10% glycerin + 300 ppm mogroside): creamy
- flavor and texture ([12]; + 10% Acai + 10% glycerin + 400 ppm mogroside): sweet, jammy, creamy,; also recorded: a bit too sweet
- flavor and texture ([12]; plain + glycerine + 300 ppm mogroside (plain + glycerine: tannic, not sweet)): soft and creamy, sweet,; also recorded: berry, mild; best texture
- flavor and texture ([12]; plain ice cream + 300 ppm mogroside (only)): plain, gummy
- solubility in water compared with oil [13]: much higher than that in oil
